According to ChEMBL document CHEMBL1201862, “PubChem BioAssay data set” (2004):
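Growth conditions: 96-well plates. Treatment: test compound, 48 hours, 5 concentrations. Analysis: linear interpolation between bracketing concentrations; unreached endpoints set to highest concentration. Here, GI50 denotes the concentration required for 50% inhibition of growth.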 The source made the active and inactive calls. Rule as the data show it: active = GI50 up to about 1.1 µM and inactive = higher.

Legend:
Experiment in all cases: NCI anticancer screen, dose series, 48 h
[1] = test system: 786-0
[2] = test system: ACHN
[3] = test system: CCRF-CEM
[4] = test system: EKVX
[5] = test system: HCT-116
[6] = test system: HL-60
[7] = test system: KM12
[8] = test system: LOX IMVI
[9] = test system: M14
[10] = test system: NCI-H460
[11] = test system: NCI-H522
[12] = test system: OVCAR-3
[13] = test system: SF-295
[14] = test system: SN12C
[15] = test system: TK-10
[16] = test system: UACC-257
[17] = test system: UO-31
[18] = test system: SR

Measured: GI50

O=C(CCc1cc(-c2ccccc2)nc(S)n1)N(Cc1ccccc1)Cc1ccccc1
inactive: [1] > 100 µM | [2] > 100 µM | [3] > 100 µM | [4] > 100 µM | [5] > 100 µM | [6] > 100 µM | [7] > 100 µM | [8] > 100 µM | [9] > 100 µM | [10] > 100 µM | [11] > 100 µM | [12] > 100 µM | [13] > 100 µM | [14] > 100 µM | [15] > 100 µM | [16] > 100 µM | [17] > 100 µM

O/N=C\C(=N/O)Nc1ccc(Cc2ccc(NC(/C=N\O)=N/O)cc2)cc1
inactive: [1] 58.6 µM | [2] 31.6 µM | [3] 45.4 µM | [4] 25.4 µM | [5] 79.4 µM | [6] 22.5 µM | [7] 54 µM | [8] 40.6 µM | [9] 27.5 µM | [10] 34.8 µM | [11] 29.6 µM | [12] 42.3 µM | [13] 21.7 µM | [14] 35.3 µM | [15] 45.2 µM | [16] 56.1 µM | [17] 13.2 µM

COC(=O)/C(=N/Nc1cccc(Cl)c1)C(C(=O)C(=O)Nc1cccc(Cl)c1C)c1nc2ccccc2nc1C (stereo unspecified)
inactive: [1] > 100 µM | [2] 11.6 µM | [3] 62.5 µM | [4] > 100 µM | [5] 62.5 µM | [6] 29.6 µM | [7] 80.7 µM | [9] 53.5 µM | [10] 48.8 µM | [11] > 100 µM | [12] > 100 µM | [13] > 100 µM | [14] 60.7 µM | [18] 90.4 µM | [15] > 100 µM | [16] > 100 µM | [17] 20.1 µM

COC1CC(OS(=O)(=O)c2ccc([N+](=O)[O-])cc2)C(OC(=O)c2ccccc2)C(C)O1 (stereo unspecified)
inactive: [1] 32.2 µM | [2] > 100 µM | [3] > 100 µM | [5] > 100 µM | [6] > 100 µM | [7] > 100 µM | [8] > 100 µM | [9] > 100 µM | [10] > 100 µM | [11] > 100 µM | [12] > 100 µM | [13] > 100 µM | [14] > 100 µM | [18] > 100 µM | [15] > 100 µM | [16] > 100 µM

NCCn1ccc(NC(c2ccccc2)(c2ccccc2)c2ccccc2)nc1=O
inactive: [1] 17.3 µM | [2] 54.7 µM | [4] 21.3 µM | [5] 18.2 µM | [6] 17.7 µM | [7] 21.7 µM | [8] 16.4 µM | [10] 20.3 µM | [11] 18.1 µM | [12] 25.8 µM | [13] 19.8 µM | [14] 20.3 µM | [18] 19.4 µM | [15] 30 µM | [16] 19.5 µM | [17] > 100 µM

CCOC(=O)CC1COc2ccc3c(c21)OCO3 (stereo unspecified)
inactive: [1] > 100 µM | [2] > 100 µM | [3] > 100 µM | [4] > 100 µM | [5] > 100 µM | [6] > 100 µM | [7] > 100 µM | [8] > 100 µM | [9] > 100 µM | [10] > 100 µM | [12] > 100 µM | [13] > 100 µM | [14] > 100 µM | [18] > 100 µM | [15] > 100 µM | [16] > 100 µM | [17] > 100 µM

COc1ccc(/C=N/NC(=O)CSc2nc(-c3ccccc3)c(-c3ccccc3)[nH]2)cc1OC
inactive: [1] 28.7 µM | [2] 31.3 µM | [3] 34.7 µM | [4] 31 µM | [5] 34.5 µM | [6] 20.3 µM | [7] 17.2 µM | [8] 20.5 µM | [9] 17.7 µM | [10] 28.6 µM | [11] 19.7 µM | [12] 17.1 µM | [13] 24.2 µM | [14] 30.1 µM | [15] 35.4 µM | [16] 27.1 µM | [17] 25.5 µM

COC(=O)CSc1nnc(-c2ccccc2)[nH]1
inactive: [1] > 100 µM | [2] > 100 µM | [3] > 100 µM | [4] > 100 µM | [5] > 100 µM | [6] > 100 µM | [7] > 100 µM | [9] > 100 µM | [10] > 100 µM | [11] > 100 µM | [12] > 100 µM | [13] > 100 µM | [14] > 100 µM | [18] 3.7 µM | [15] > 100 µM | [16] > 100 µM | [17] > 100 µM

COc1ccc(C2S/C(=C\c3ccccc3O)C(=O)N2NC(=O)Cc2ccccc2)cc1 (stereo unspecified)
inactive: [1] > 100 µM | [2] > 100 µM | [3] 48.5 µM | [5] 38.2 µM | [6] 60.5 µM | [7] > 100 µM | [8] > 100 µM | [9] > 100 µM | [10] > 100 µM | [11] > 100 µM | [13] > 100 µM | [14] > 100 µM | [18] 37.4 µM | [15] > 100 µM | [16] > 100 µM | [17] > 100 µM

O=C1C(=O)N(c2ccc(Cl)cc2)C(=O)/C(=N/c2cccc3c(=O)[nH][nH]c(=O)c23)C1c1nc2ccccc2o1 (stereo unspecified)
inactive: [1] > 100 µM | [2] > 100 µM | [3] > 100 µM | [4] > 100 µM | [5] > 100 µM | [6] > 100 µM | [7] > 100 µM | [8] > 100 µM | [9] > 100 µM | [10] > 100 µM | [12] > 100 µM | [13] > 100 µM | [14] > 100 µM | [18] > 100 µM | [15] > 100 µM | [16] > 100 µM | [17] > 100 µM

S=C(/N=c1\sc(Nc2ccc(Cl)cc2)nc2sc3c(c12)CCN(N1CCc2c(sc4nc(Nc5ccc(Cl)cc5)s/c(=N\C(=S)Nc5ccc(Cl)cc5)c24)C1)C3)Nc1ccc(Cl)cc1
inactive: [1] 18 µM | [2] 35.1 µM | [4] 61.7 µM | [5] 17.9 µM | [9] 60 µM | [10] 33.8 µM | [11] 96.2 µM | [12] 42.3 µM | [13] 38.7 µM | [14] 19.2 µM | [15] 44.6 µM | [16] 43.5 µM | [17] 62.1 µM

CCOC(=O)C1S/C(=N\c2ccccc2)N=C1C (stereo unspecified)
inactive: [1] 77.8 µM | [2] 39.7 µM | [4] 64.1 µM | [5] > 100 µM | [6] 59.6 µM | [7] > 100 µM | [8] 47.3 µM | [10] 79.1 µM | [11] 44.7 µM | [12] 97.1 µM | [13] > 100 µM | [14] > 100 µM | [18] 45.3 µM | [15] > 100 µM | [16] > 100 µM | [17] 53.3 µM
